Assay results taken from patent US5668182A, “Method of calming or sedating an animal with a hydroxy benzaldehyde compound” (priority 1996, dated 1997).

Columns and labels:
mice [1] = assay: Spontaneous locomotor activity of mice (Example 3); format: in vivo
Method: The effect of vanillin on spontaneous locomotor activity of mice was examined. Three groups of male mice, with four mice per group, were assigned to receive a dosage of vanillin of 0, 200 or 300 mg/kg, respectively. After i.p. injection of vanillin or a control solution (0.9% NaCl in water), an injected mouse was placed by itself in a cage, the cage enclosed in a cabinet to exclude external stimuli, and locomotor activity of the mouse was monitored. Three types of movements of the mouse within the cage were measured, based upon interruptions of 16 beams of infrared light, spaced one inch (2.54 cm) apart, which traverse the cage. Interruptions of the infrared beams are detected by sensors and are recorded as "counts" of activity using a system obtained from Omnitech Electronics, Columbus Ohio.
Three types of activity measures were automatically recorded by the system: (1) all interruptions of all beams were recorded as "Total activity counts"; (2) interruptions of two consecutive beams were recorded as "Ambulatory activity counts"; and (3) interruptions of four consecutive beams were recorded as "Gross movements".
The effects of doses of vanillin (200 and 300 mg/kg i.p.) was assessed and compared with locomotor activity recorded for concomitantly tested mice given only vehicle (0.9% NaCl in water). Measurement of locomotor activity was made during 10 minute intervals for 60 minutes after treatment. Due to the relatively short duration of vanillin encountered, the higher dose group also had measurements taken at three minute intervals for 24 minutes and at one minute intervals for nine minutes after treatment.
Means and standard errors of numbers of counts were determined for each experimental group.

mice [2] = assay: Metrazol-induced seizures in mice (Example 5); format: in vivo; conditions: for Death: Metrazol 90 mg/kg i.p. (vehicle 0/6); for Tonic Convulsion: Metrazol 90 mg/kg i.p. (vehicle 6/6)
Method: (§1) Mice were treated with vanillin (100, 200, or 300 mg/kg) or saline (0.9% NaCl) by i.p. injection. The treatment was followed either by injection of pentylenetetrazol ("Metrazol"), 80 or 90 mg/kg by i.p. injection (given 5 minutes after vanillin) or by exposure to a 1-second pulse of shock through electrodes clamped to the ears (5 minutes after vanillin). The end-points for both tests were the occurrence of a tonic (extensor) convulsion and/or death. Six mice were used per group for the Metrazol-induced seizure test, and five mice were used per group for the electroshock-induced seizure test.

mice [3] = assay: Electroshock-induced seizures in mice (Example 5); format: in vivo; conditions: vanillin 300 mg/kg i.p.
Method: as §1

rats = conditions: cited from earlier work
man = conditions: in man; cited from earlier work
mice [4] = assay: Pentobarbital-induced loss of righting reflex ("sleep") in mice (Example 2); format: in vivo
Method: The depressant effect of vanillin on mice was investigated by examining the effect of vanillin on pentobarbital-induced loss of righting reflex. Groups of mice (six to fourteen mice per group) were designated to receive a dose of vanillin of 50, 100, 200 or 300 mg/kg, or a control vehicle (0.9% sodium chloride in water). Fifty (50) mg/kg I.p. (intraperitoneally)injected pentobarbital was administered to each mouse of each group, and each mouse was also concurrently given the dose of vanillin (50, 100, 200 or 300 mg/kg) or the control vehicle, depending on its grouping, by s.c. (subcutaneous) injection.
The effects of vanillin on the onset and duration of "sleep" induced by the pentobarbital were observed. […] Means and standard errors of values for onset and duration of "sleep" were determined for each experimental group. Each vanillin-treated group was compared with its concomitantly tested control group (treated with saline in lieu of vanillin) for evaluating the statistical significance of vanillin effect.

COc1cc(C=O)ccc1O [vanillin, 4-hydroxy-3-methoxybenzaldehyde]
Gross movements (mice [1]; 200 mg/kg i.p., 0-10 min (control 83 ± 16)): 86 ± 16 counts
Ambulatory activity counts (mice [1]; 200 mg/kg i.p., 0-10 min (control 739 ± 108)): 545 ± 62 counts
Total activity counts (mice [1]; 200 mg/kg i.p., 0-10 min (control 1525 ± 281)): 897 ± 201 counts
Gross movements (mice [1]; 200 mg/kg i.p., 10-20 min (control 41 ± 8)): 43 ± 8 counts
Ambulatory activity counts (mice [1]; 200 mg/kg i.p., 10-20 min (control 461 ± 68)): 291 ± 37 counts
Gross movements (mice [1]; 200 mg/kg i.p., 20-30 min (control 34 ± 13)): 18 ± 13 counts
Ambulatory activity counts (mice [1]; 200 mg/kg i.p., 20-30 min (control 307 ± 76)): 130 ± 85 counts
Total activity counts (mice [1]; 200 mg/kg i.p., 20-30 min (control 582 ± 126)): 481 ± 257 counts
Gross movements (mice [1]; 200 mg/kg i.p., 30-40 min (control 31 ± 11)): 14 ± 11 counts
Ambulatory activity counts (mice [1]; 200 mg/kg i.p., 30-40 min (control 599 ± 224)): 409 ± 276 counts
Total activity counts (mice [1]; 200 mg/kg i.p., 30-40 min (control 635 ± 204)): 410 ± 275 counts
Gross movements (mice [1]; 200 mg/kg i.p., 40-50 min (control 19 ± 14)): 32 ± 13 counts
Ambulatory activity counts (mice [1]; 200 mg/kg i.p., 40-50 min (control 171 ± 103)): 243 ± 67 counts
Total activity counts (mice [1]; 200 mg/kg i.p., 40-50 min (control 268 ± 167)): 413 ± 115 counts
Gross movements (mice [1]; 200 mg/kg i.p., 50-60 min (control 23 ± 8)): 31 ± 8 counts
Gross movements (mice [1]; 300 mg/kg i.p., 0-10 min (control 83 ± 16)): 75 ± 23 counts
Ambulatory activity counts (mice [1]; 300 mg/kg i.p., 0-10 min (control 739 ± 108)): 479 ± 150 counts
Gross movements (mice [1]; 300 mg/kg i.p., 10-20 min (control 41 ± 8)): 57 ± 19 counts
Ambulatory activity counts (mice [1]; 300 mg/kg i.p., 10-20 min (control 461 ± 68)): 298 ± 117 counts
Total activity counts (mice [1]; 300 mg/kg i.p., 10-20 min (control 832 ± 105)): 449 ± 155 counts
Gross movements (mice [1]; 300 mg/kg i.p., 20-30 min (control 34 ± 13)): 37 ± 16 counts
Ambulatory activity counts (mice [1]; 300 mg/kg i.p., 20-30 min (control 307 ± 76)): 245 ± 100 counts
Total activity counts (mice [1]; 300 mg/kg i.p., 20-30 min (control 582 ± 126)): 404 ± 176 counts
Gross movements (mice [1]; 300 mg/kg i.p., 30-40 min (control 31 ± 11)): 38 ± 10 counts
Ambulatory activity counts (mice [1]; 300 mg/kg i.p., 30-40 min (control 599 ± 224)): 270 ± 74 counts
Total activity counts (mice [1]; 300 mg/kg i.p., 30-40 min (control 635 ± 204)): 441 ± 121 counts
Gross movements (mice [1]; 300 mg/kg i.p., 40-50 min (control 19 ± 14)): 21 ± 8 counts
Ambulatory activity counts (mice [1]; 300 mg/kg i.p., 40-50 min (control 171 ± 103)): 244 ± 66 counts
Total activity counts (mice [1]; 300 mg/kg i.p., 40-50 min (control 268 ± 167)): 365 ± 108 counts
Gross movements (mice [1]; 300 mg/kg i.p., 50-60 min (control 23 ± 8)): 12 ± 7 counts
effect on smaller types of motor movements (mice [1]; 200 and 300 mg/kg i.p.): suppressed
effect on gross movements, such as walking (mice [1]; any time, doses up to 300 mg/kg): not significantly affected
persistence of some effect on locomotor activity (mice [1]; i.p.): ≥ 60 min
protection versus Metrazol-induced seizures (mice [2]; 300 mg/kg): some protection
anticonvulsant activity (mice [2]; particularly at higher doses, data of Table 5): some mild anticonvulsant activity
Death (mice [2]; vanillin 200 mg/kg i.p.): 2/6
Tonic Convulsion (mice [2]; vanillin 200 mg/kg i.p.): 5/6
Death (mice [2]; vanillin 300 mg/kg i.p.): 0/6
Tonic Convulsion (mice [2]; vanillin 300 mg/kg i.p.): 1/6
Death (mice [3]; 1-second electroshock (vehicle 1/5)): 0/5
Tonic Convulsion (mice [3]; 1-second electroshock (vehicle 5/5)): 4/5
oral LD50 (rats): 1580 mg/kg
metabolism and excretion (man): converted to vanillic acid in the liver and is excreted in the urine
duration of loss of righting reflex (mice [4]; 100 to 300 mg/kg along with pentobarbital): markedly increased and enhanced
effect on barbituate-induced loss of righting reflex (mice [4]; lower dose, 50 mg/kg): appeared to lessen the barbituate effect
Duration of "Sleep" (mean + SEM) (mice [4]; vanillin 50 mg/kg s.c. + pentobarbital 50 mg/kg i.p., * p<0.05 vs control (vehicle 31.0 ± 3.79)): 20.3 ± 1.09 min
Duration of "Sleep" (mean + SEM) (mice [4]; vanillin 100 mg/kg s.c. + pentobarbital 50 mg/kg i.p. (vehicle 36.5 ± 4.67)): 47.6 ± 4.48 min
Onset of "sleep" (mean + SEM) (mice [4]; vanillin 200 mg/kg s.c. + pentobarbital 50 mg/kg i.p. (vehicle 3.5 ± 0.87)): 2.8 ± 0.97 min
Duration of "Sleep" (mean + SEM) (mice [4]; vanillin 200 mg/kg s.c. + pentobarbital 50 mg/kg i.p., ** p<0.001 vs control (vehicle 27.4 ± 3.34)): 62.9 ± 5.05 min
Onset of "sleep" (mean + SEM) (mice [4]; vanillin 300 mg/kg s.c. + pentobarbital 50 mg/kg i.p. (vehicle 4.3 ± 0.97)): 3.3 ± 0.23 min
Duration of "Sleep" (mean + SEM) (mice [4]; vanillin 300 mg/kg s.c. + pentobarbital 50 mg/kg i.p., ** p<0.001 vs control (vehicle 39.6 ± 6.57)): 102.1 ± 5.71 min
